Laboratory results as given in US10869846B2, “N-acetylcysteine amide (NAC amide) in the treatment of diseases and conditions associated with oxidative stress” (SENTIENT LIFESCIENCES, INC., priority 2005, dated 2020).
Where “and” joins values, the source holds several entries; their conditions need not be identical. Equal values may be shown once. Marks after values point to notes of the source that are not given here.

Assays:
Type in all cases: in vivo, rat
Sprague Dawley rats [1] = assay: MDA levels in tissues after 6Gy total-body x-ray radiation; conditions: for MDA level / MDA Mean: 6Gy total-body x-ray, 500 mg/kg orally; for MDA level: individual animals; for MDA Mean: n = 3; for lung MDA levels: treatment concurrent with irradiation, versus irradiation alone
Method: Animal studies: The irradiation of rats was performed at the Radiation Oncology Department of the Phelps County Regional Medical Center in Rolla, Mo., using a 16 MeV beam generated by a Varian linear accelerator, model Clinac 1800, and in accordance with the standards of humane laboratory animal protocols. A 20×20 or 25×25 cm field was used and output factors were checked once a week. Twelve animals were divided into 4 groups each containing 3 animals (Control, XRT, NAC amide+XRT and NAC+XRT). The radiation (XRT) control received whole body irradiation by 6 Gy of 16 MeV electrons. The NAC amide+XRT group received 500 mg/kg/day NAC amide immediately before irradiation and for three days after until sacrifice. The rats were anesthetized and heparinized blood was collected via cardiopuncture. Following sacrifice, liver, lung, brain and spleen were removed and stored at −70° C. until homogenization.
All experiments were performed using adult Albino SASCO Sprague Dawley female rats weighing about 250 g, which were purchased from Charles River Laboratories Inc. (Portage, Mich.). Twelve rats were shipped in paper crates (4 in each crate). Rats were delivered with a certificate including serological, bacteriological, pathological parasitological information. They were divided into 4 cages (3 rats in each cage) and kept in a temperature controlled (20° C.) room equipped to maintain a 12 h light-dark cycle. Standard rat chow (Purina rat chow) and tap water were supplied in individual glass bottle and given ad libitum. Water was changed daily. Weights of the animal were taken before giving the NAC amide treatment solution and amount of food eaten and water consumed was not measured because NAC amide was given orally but not in the drinking water or food.
NAC amide was provided by Novetide Ltd (Haifa Bay, Israel) including certificate of analysis and MSDS (lot #40233-64). NAC amide feeding solution was prepared freshly each day right before the administration by weighing 1.25 g NAC amide solid sample (Type HR-120 electronic balance, A&D Company limited, Japan. S/N: 12202464) and adding into 10 ml PBS solution and put on ice. One ml of this solution was administrated (gavaged) per rat orally by using animal feeding biomedical needles and 3 ml BD Luer-Lok Tip syringes. Rats received one-dose total-body 6 Gy/16 MeV x-ray radiation and 3 rats in each group were held in a covered bucket and received radiation at the same time. Each day at the same time, 500 mg/Kg body weight of NAC amide was administrated to the animals.
For MDA levels, 350 μL tissue homogenate was used to react with 100 μL of 500 ppm BHT solution and 550 μL solution of 10% TCA solution, therefore, the total volume here was 1000 μL. After boiling the whole solution, 500 μL was taken out and react with 500 μL TBA and the total volume here was 1000 μL also.
Glutathione (GSH) and Glutathione Disulfide (GSSG) Determination: Cells or tissue samples were homogenized on ice and derivatized with N-(1-pyrenyl)-maleimide (NPM). The derivatized samples were injected onto a 3 μm C18 column (Column Engineering) in a reverse phase HPLC system with a mobile phase of 35% water, 65% acetonitrile containing 1 mL/L of acetic acid and o-phosphoric acid (R. Winters, et al., Anal. Biochem., 227:14-21 (1995) and H. H. Draper et al., Free Rad. Biol. Med., 15:353-363 (1993)). Malondialdehyde (MDA) determinations were made as described in J. Gutteridge, Anal. Biochem., 69: 518-526 (1975).

Sprague-Dawley rats = assay: Survival after whole body single-dose X-ray irradiation (9 Gy); conditions: for survival rate versus XRT alone: pre-treated before XRT
Description: This Example describes a study observing the survival of rats receiving whole body, single-dose irradiation by X-rays (XRT) in the presence or absence of NAC or NAC amide (TOVA). In this experiment, thirty-nine female Sprague-Dawley rats ranging from about 150-200 g were subjected to total body, single-dose X-ray irradiation (9 Gy, 16 Mev). The same groups were designated to receive either NAC or TOVA. For the pre-treatment groups (n=6 in each group), the first treatment of NAC or TOVA was administered 30 minutes to 1 hour before irradiation. For the post-pretreatment groups (n=6 in each group), the first treatment of NAC or TOVA was administered 30 minutes to 1 hour after the irradiation. For groups receiving NAC or TOVA, the same amount (500 mg/kg NAC or TOVA daily) was administered for 4 or 5 consecutive days.
Group 1 was a control group (n=3), where rats received the same amount of saline solution daily for 5 consecutive days without XRT. Group 2 rats received NAC only (n=3) at an amount of 500 mg/kg body weight NAC daily for 5 consecutive days without XRT. Group 3 rats received TOVA only (n=3) at an amount of 500 mg/kg body weight TOVA daily for 5 consecutive days without XRT. Group 4 rats received radiation (XRT) only (n=6) and received the same amount of saline solution daily for 5 consecutive days after single dose total-body XRT irradiation.
Group 5 rats received one treatment of NAC at 500 mg/kg body weight before XRT (XRT+NAC pre-treated), which was then followed by 500 mg/kg body weight NAC daily for 4 consecutive days after XRT. Group 6 rats received XRT, followed by daily doses of NAC at 500 mg/kg body weight for 5 consecutive days after XRT (XRT+NAC post-treated). Group 7 rats […] at 500 mg/kg body weight before XRT (XRT+TOVA pre-treated), which was then followed by 500 mg/kg body weight TOVA daily for 4 consecutive days after XRT. Group 8 rats received XRT, followed by daily doses of TOVA at 500 mg/kg body weight for 5 consecutive days after XRT (XRT+TOVA post-treated). All rats were then given a normal diet post-treatment.
The rats were observed twice a day, and the survival status of rats in each group will be recorded. The mean survival days were calculated for each group and compared to the survival differences of the three groups of rats at the end of the experiment. The radioprotective effects of NAC and TOVA treatment on the survival of those irradiated rats were then evaluated, as shown in the following tables.

Sprague Dawley rats [2] = assay: Catalase activities in tissues after 6Gy total-body x-ray radiation; conditions: KIDNEY, 500 mg/kg orally; for Catalase level: individual animals; for Catalase Mean: n = 3
[3] = Table 15, XRT 9 Gy, post-treated
[4] = Table 15, XRT 9 Gy, pre-treated
[5] = Table 15, compound only, no XRT
[6] = Table 16, XRT 9 Gy, post-treated
[7] = Table 16, XRT 9 Gy, pre-treated
[8] = Table 16, compound only, no XRT
[9] = XRT 9 Gy, post-treated, 500 mg/kg daily, n = 6, 2nd time
[10] = XRT 9 Gy, pre-treated, 500 mg/kg daily, n = 6, 1st time
[11] = XRT 9 Gy, pre-treated, 500 mg/kg daily, n = 6, 2nd time
[12] = compound only, no XRT, 500 mg/kg daily 5 days, 2nd time

Compound	MDA Mean (Sprague Dawley rats [1]; BRAIN)	MDA Mean (Sprague Dawley rats [1]; KIDNEY)	MDA Mean (Sprague Dawley rats [1]; LIVER)	MDA Mean (Sprague Dawley rats [1]; LUNG)	lung MDA levels (Sprague Dawley rats [1])	percentage survival rate (Sprague-Dawley rats; [3])	percentage survival rate (Sprague-Dawley rats; [4])	percentage survival rate (Sprague-Dawley rats; [5])	percentage survival rate (Sprague-Dawley rats; [6])	percentage survival rate (Sprague-Dawley rats; [7])	percentage survival rate (Sprague-Dawley rats; [8])	# of animals dead (Sprague-Dawley rats; [9])	# of animals survived (Sprague-Dawley rats; [9])	# of animals dead (Sprague-Dawley rats; [10])	# of animals survived (Sprague-Dawley rats; [10])	# of animals dead (Sprague-Dawley rats; [11])	# of animals survived (Sprague-Dawley rats; [11])	# of animals dead (Sprague-Dawley rats; [12])	# of animals survived (Sprague-Dawley rats; [12])	survival rate versus XRT alone (Sprague-Dawley rats)	further results
CC(=O)N[C@@H](CS)C(=O)O [NAC, N-acetylcysteine]	6.15 nmol/100 mg	1.65** nmol/100 mg	5.07**/*** nmol/100 mg	2.52** nmol/100 mg	did not change the MDA levels significantly	33.3%	83.3%	100%	33.3%	83.3%	100%	4	2	1	5	1	5	0	2	higher survival rate	MDA level (Sprague Dawley rats [1]; BRAIN, 500 mg/kg): 6.42 nmol/100 mg and 6.69 nmol/100 mg and 5.33 nmol/100 mg; MDA level (Sprague Dawley rats [1]; KIDNEY, 500 mg/kg): 1.76 nmol/100 mg and 1.78 nmol/100 mg and 1.41 nmol/100 mg; MDA level (Sprague Dawley rats [1]; LIVER, 500 mg/kg): 5.1 nmol/100 mg (2×) and 5.02 nmol/100 mg; MDA level (Sprague Dawley rats [1]; LUNG, 500 mg/kg): 2.58 nmol/100 mg and 2.34 nmol/100 mg and 2.63 nmol/100 mg; Catalase level (Sprague Dawley rats [2]; 500 mg/kg): 5.85 mU/mg and 3.02 mU/mg and 4.36 mU/mg; Catalase Mean (Sprague Dawley rats [2]): 4.41 mU/mg
N-acetylcysteine amide [NAC amide]	5.48 nmol/100 mg	1.64** nmol/100 mg	4.38** nmol/100 mg	1.53** nmol/100 mg	significantly lowered	66.7%	100%	100%	66.7%	100%	100%	2	4	0	6	0	6	0	3	higher survival rate	MDA level (Sprague Dawley rats [1]; BRAIN, listed as AD4, 500 mg/kg): 5.79 nmol/100 mg and 5.53 nmol/100 mg and 5.13 nmol/100 mg; MDA level (Sprague Dawley rats [1]; KIDNEY, listed as AD4, 500 mg/kg): 1.96 nmol/100 mg and 1.45 nmol/100 mg; MDA level (Sprague Dawley rats [1]; KIDNEY, listed as AL4, 500 mg/kg): 1.5 nmol/100 mg; MDA level (Sprague Dawley rats [1]; LIVER, listed as AD4, 500 mg/kg): 4.14 nmol/100 mg and 4.65 nmol/100 mg and 4.36 nmol/100 mg; MDA level (Sprague Dawley rats [1]; LUNG, listed as AD4, 500 mg/kg): 1.72 nmol/100 mg and 1.58 nmol/100 mg and 1.28 nmol/100 mg; Catalase level (Sprague Dawley rats [2]; listed as AD4, 500 mg/kg): 3.89 mU/mg and 3.46 mU/mg and 4.56 mU/mg; Catalase Mean (Sprague Dawley rats [2]): 3.97** mU/mg
